Activity calls are given as the source filed them. The calls are words filed in the database; no cut-off is given here.
Assays:
[1] = target: 5-hydroxytryptamine receptor 7 (Homo sapiens, UniProt P34969); test: Displacement of [3H]]-5-CT from human cloned 5-HT7R expressed in HEK293 cells; format: cell-based
[2] = target: 5-hydroxytryptamine receptor 2A (Rattus norvegicus, UniProt P14842); test: Displacement of [3H]-ketanserin from 5-HT2AR in rat cortex
[3] = target: T1, 5-hydroxytryptamine receptor 1A (Rattus norvegicus, UniProt P19327); test: Displacement of [3H]-8-OH-DPAT from 5-HT1AR in rat hippocampus; format: tissue-based
T1 sequence (P19327 whole entry): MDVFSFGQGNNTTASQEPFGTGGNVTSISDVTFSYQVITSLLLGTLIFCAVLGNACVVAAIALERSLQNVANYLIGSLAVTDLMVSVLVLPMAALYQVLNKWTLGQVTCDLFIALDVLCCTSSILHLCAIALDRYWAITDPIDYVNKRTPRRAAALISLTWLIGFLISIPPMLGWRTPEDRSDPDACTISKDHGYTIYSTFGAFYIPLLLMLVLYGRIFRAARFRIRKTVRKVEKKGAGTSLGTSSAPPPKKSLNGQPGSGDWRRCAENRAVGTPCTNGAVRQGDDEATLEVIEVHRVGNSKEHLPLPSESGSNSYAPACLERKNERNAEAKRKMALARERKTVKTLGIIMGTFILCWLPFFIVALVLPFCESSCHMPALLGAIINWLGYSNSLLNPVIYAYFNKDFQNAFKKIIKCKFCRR

[4] = target: 5-hydroxytryptamine receptor 6 (Homo sapiens, UniProt P50406); test: Displacement of [3H]LSD from human cloned 5-HT6R expressed in HEK293 cells; format: cell-based
Sequence of 5-hydroxytryptamine receptor 6 (P50406 whole entry): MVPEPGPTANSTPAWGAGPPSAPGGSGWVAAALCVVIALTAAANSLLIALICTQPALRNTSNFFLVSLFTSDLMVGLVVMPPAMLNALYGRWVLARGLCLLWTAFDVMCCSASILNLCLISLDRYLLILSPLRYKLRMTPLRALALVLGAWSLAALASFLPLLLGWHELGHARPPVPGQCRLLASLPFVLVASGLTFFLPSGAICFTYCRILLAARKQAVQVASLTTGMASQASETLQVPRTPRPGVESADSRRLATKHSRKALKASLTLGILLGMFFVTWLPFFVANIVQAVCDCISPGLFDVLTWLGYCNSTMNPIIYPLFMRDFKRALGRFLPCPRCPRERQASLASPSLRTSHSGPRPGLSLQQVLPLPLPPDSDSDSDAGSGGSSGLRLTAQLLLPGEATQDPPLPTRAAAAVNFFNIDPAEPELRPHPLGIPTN

D(2) dopamine receptor = D(2) dopamine receptor (Rattus norvegicus, UniProt P61169); test: Displacement of [3H]-spiperone from dopamine D2 receptor in rat striatum
Sequence of D(2) dopamine receptor (P61169 whole entry): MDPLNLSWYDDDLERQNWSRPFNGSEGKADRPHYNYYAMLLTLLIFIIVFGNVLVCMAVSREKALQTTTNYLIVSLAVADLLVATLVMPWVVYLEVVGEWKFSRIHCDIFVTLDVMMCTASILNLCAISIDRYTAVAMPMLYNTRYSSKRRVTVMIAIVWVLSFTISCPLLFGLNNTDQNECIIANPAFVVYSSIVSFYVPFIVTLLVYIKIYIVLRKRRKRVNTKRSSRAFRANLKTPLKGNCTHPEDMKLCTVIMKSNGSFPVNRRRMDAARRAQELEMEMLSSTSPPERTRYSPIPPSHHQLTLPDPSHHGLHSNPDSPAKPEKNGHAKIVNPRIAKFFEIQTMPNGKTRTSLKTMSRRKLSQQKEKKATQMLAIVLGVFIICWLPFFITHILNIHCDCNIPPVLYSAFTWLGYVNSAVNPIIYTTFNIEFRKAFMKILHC

Mus musculus [5] = test: Anxiolytic-like activity in mouse assessed as increase in number of punished crossings at 0.625 mg/kg, ip dosed 60 mins before test by four plate test; format: functional; conditions: route intraperitoneal
Mus musculus [6] = test: Induction of hypothermia in mouse assessed as change in body temperature at 5 mg/kg, ip administered 30 mins before test and measured 60 mins post dose; format: functional, organism-based; design: dose 5 mg/kg
Mus musculus [7] = test: Effect on spontaneous locomotor activity in mouse at 0.625 mg/kg, ip; format: ADME, organism-based; design: dose 0.625 mg/kg, route intraperitoneal; conditions: in vivo
Mus musculus [8] = test: Antidepressant-like activity in mouse assessed as reduction in immobility time at 0.156 to 5 mg/kg, ip dosed 60 mins before test by forced swim test; format: functional, organism-based
Mus musculus [9] = test: Anxiolytic-like activity in mouse assessed as increase in number of punished crossings at 0.156 mg/kg, ip dosed 60 mins before test co-administered with 0.625 mg/kg diazepam by four plate test; format: functional, organism-based
Mus musculus [10] = test: Induction of hypothermia in mouse assessed as change in body temperature at 2.5 mg/kg, ip administered 30 mins before test and measured 120 mins post dose; format: functional, organism-based; design: dose 2.5 mg/kg
Rattus norvegicus [11] = test: Inhibition of 8-OH-DPAT-induced lower lip retraction in rat assessed as lower lip retraction scores at 10 mg/kg, ip dosed 45 mins before 8-OH-DPAT; format: functional; conditions: route intraperitoneal
Mus musculus [12] = test: Inhibition of (+/-)-DOI-induced head twitch response in mouse assessed as head twitches per 20 mins at 10 mg/kg, ip dosed 60 mins before (+/-)-DOI injection (reference value: 21.6 +/- 3.4/20 mins); format: functional; conditions: route intraperitoneal
Mus musculus [13] = test: Induction of hypothermia in mouse assessed as change in body temperature at 2.5 mg/kg, ip administered 30 mins before test and measured 30 mins post dose in presence of 0.3 mg/kg, sc 5HT1A receptor antagonist WAY 100635; format: functional, organism-based
Mus musculus [14] = test: Inhibition of (+/-)-DOI-induced head twitch response in mouse assessed as head twitches per 20 mins at 5 mg/kg, ip dosed 60 mins before (+/-)-DOI injection (reference value: 21.6 +/- 3.4/20 mins); format: functional; conditions: route intraperitoneal
Mus musculus [15] = test: Inhibition of (+/-)-DOI-induced head twitch response in mouse assessed as head twitches per 20 mins at 2.5 mg/kg, ip dosed 60 mins before (+/-)-DOI injection (reference value: 21.6 +/- 3.4/20 mins); format: functional; conditions: route intraperitoneal
Rattus norvegicus [16] = test: Inhibition of 8-OH-DPAT-induced lower lip retraction in rat assessed as lower lip retraction scores at 1 mg/kg, ip dosed 45 mins before 8-OH-DPAT; format: functional; conditions: route intraperitoneal
Rattus norvegicus [17] = test: Inhibition of 8-OH-DPAT-induced lower lip retraction in rat assessed as lower lip retraction scores at 5 mg/kg, ip dosed 45 mins before 8-OH-DPAT; format: functional; conditions: route intraperitoneal
Mus musculus [18] = test: Induction of hypothermia in mouse assessed as change in body temperature at 2.5 mg/kg, ip administered 30 mins before test and measured 60 mins post dose; format: functional, organism-based; design: dose 2.5 mg/kg
Mus musculus [19] = test: Induction of hypothermia in mouse assessed as change in body temperature at 2.5 mg/kg, ip administered 30 mins before test and measured 60 mins post dose in presence of 0.3 mg/kg, sc 5HT1A receptor antagonist WAY 100635; format: functional, organism-based
Mus musculus [20] = test: Induction of hypothermia in mouse assessed as change in body temperature at 2.5 mg/kg, ip administered 30 mins before test and measured 90 mins post dose; format: functional, organism-based; design: dose 2.5 mg/kg
Rattus norvegicus [21] = test: Induction of lower lip retraction in rat assessed as lower lip retraction scores at 5 mg/kg, ip dosed 15 mins before test; format: functional; conditions: route intraperitoneal
Mus musculus [22] = test: Induction of hypothermia in mouse assessed as change in body temperature at 2.5 mg/kg, ip administered 30 mins before test and measured 30 mins post dose; format: functional, organism-based; design: dose 2.5 mg/kg
Rattus norvegicus [23] = test: Induction of lower lip retraction in rat assessed as lower lip retraction scores at 10 mg/kg, ip dosed 15 mins before test; format: functional; conditions: route intraperitoneal
Mus musculus [24] = test: Effect on spontaneous locomotor activity in mouse at 0.312 mg/kg, ip; format: ADME, organism-based; design: dose 0.312 mg/kg, route intraperitoneal; conditions: in vivo
Mus musculus [25] = test: Anxiolytic-like activity in mouse assessed as increase in number of punished crossings at 0.312 mg/kg, ip dosed 60 mins before test by four plate test; format: functional; conditions: route intraperitoneal
Mus musculus [26] = test: Induction of hypothermia in mouse assessed as change in body temperature at 5 mg/kg, ip administered 30 mins before test and measured 120 mins post dose; format: functional, organism-based; design: dose 5 mg/kg
Mus musculus [27] = test: Inhibition of (+/-)-DOI-induced head twitch response in mouse assessed as head twitches per 20 mins at 0.625 mg/kg, ip dosed 60 mins before (+/-)-DOI injection (reference value: 21.6 +/- 3.4/20 mins); format: functional; conditions: route intraperitoneal
Mus musculus [28] = test: Induction of hypothermia in mouse assessed as change in body temperature at 5 mg/kg, ip administered 30 mins before test and measured 90 mins post dose; format: functional, organism-based; design: dose 5 mg/kg
Mus musculus [29] = test: Inhibition of (+/-)-DOI-induced head twitch response in mouse assessed as head twitches per 20 mins at 1.25 mg/kg, ip dosed 60 mins before (+/-)-DOI injection (reference value: 21.6 +/- 3.4/20 mins); format: functional; conditions: route intraperitoneal
Mus musculus [30] = test: Induction of hypothermia in mouse assessed as change in body temperature at 5 mg/kg, ip administered 30 mins before test and measured 30 mins post dose; format: functional, organism-based; design: dose 5 mg/kg
Rattus norvegicus [31] = test: Induction of lower lip retraction in rat assessed as lower lip retraction scores at 1 mg/kg, ip dosed 15 mins before test; format: functional; conditions: route intraperitoneal
Mus musculus [32] = test: Inhibition of (+/-)-DOI-induced head twitch response in mouse dosed intraperitoneally 60 mins before (+/-)-DOI injection; format: functional
Mus musculus [33] = test: Induction of hypothermia in mouse assessed as change in body temperature at 10 mg/kg, ip administered 30 mins before test and measured 60 mins post dose; format: functional, organism-based; design: dose 10 mg/kg
Mus musculus [34] = test: Induction of hypothermia in mouse assessed as change in body temperature at 10 mg/kg, ip administered 30 mins before test and measured 90 mins post dose; format: functional, organism-based; design: dose 10 mg/kg
Mus musculus [35] = test: Induction of hypothermia in mouse assessed as change in body temperature at 10 mg/kg, ip administered 30 mins before test and measured 30 mins post dose in presence of 0.3 mg/kg, sc 5HT1A receptor antagonist WAY 100635; format: functional, organism-based
Mus musculus [36] = test: Anxiolytic-like activity in mouse assessed as increase in number of punished crossings at 2.5 mg/kg, ip dosed 60 mins before test in presence of 0.3 mg/kg, sc 5HT1A receptor antagonist WAY 100635 by four plate test; format: functional, organism-based
Mus musculus [37] = test: Antidepressant-like activity in mouse assessed as reduction in immobility time at 1.25 to 10 mg/kg, ip dosed 60 mins before test by forced swim test; format: functional, organism-based
Rattus norvegicus [38] = test: Induction of lower lip retraction in rat assessed as lower lip retraction scores at 10 mg/kg, ip dosed 45 mins after 0.3 mg/kg, sc 5HT1A receptor antagonist WAY 100635; format: functional
Mus musculus [39] = test: Induction of hypothermia in mouse assessed as change in body temperature at 10 mg/kg, ip administered 30 mins before test and measured 60 mins post dose in presence of 0.3 mg/kg, sc 5HT1A receptor antagonist WAY 100635; format: functional, organism-based
Mus musculus [40] = test: Induction of hypothermia in mouse assessed as change in body temperature at 10 mg/kg, ip administered 30 mins before test and measured 30 mins post dose; format: functional, organism-based; design: dose 10 mg/kg
Mus musculus [41] = test: Effect on spontaneous locomotor activity in mouse at 2.5 mg/kg, ip; format: ADME, organism-based; design: dose 2.5 mg/kg, route intraperitoneal; conditions: in vivo
Mus musculus [42] = test: Anxiolytic-like activity in mouse assessed as increase in number of punished crossings at 2.5 mg/kg, ip dosed 60 mins before test by four plate test; format: functional; conditions: route intraperitoneal
Mus musculus [43] = test: Induction of hypothermia in mouse assessed as change in body temperature at 10 mg/kg, ip administered 30 mins before test and measured 120 mins post dose; format: functional, organism-based; design: dose 10 mg/kg

Sequence of 5-hydroxytryptamine receptor 2A (P14842 whole entry): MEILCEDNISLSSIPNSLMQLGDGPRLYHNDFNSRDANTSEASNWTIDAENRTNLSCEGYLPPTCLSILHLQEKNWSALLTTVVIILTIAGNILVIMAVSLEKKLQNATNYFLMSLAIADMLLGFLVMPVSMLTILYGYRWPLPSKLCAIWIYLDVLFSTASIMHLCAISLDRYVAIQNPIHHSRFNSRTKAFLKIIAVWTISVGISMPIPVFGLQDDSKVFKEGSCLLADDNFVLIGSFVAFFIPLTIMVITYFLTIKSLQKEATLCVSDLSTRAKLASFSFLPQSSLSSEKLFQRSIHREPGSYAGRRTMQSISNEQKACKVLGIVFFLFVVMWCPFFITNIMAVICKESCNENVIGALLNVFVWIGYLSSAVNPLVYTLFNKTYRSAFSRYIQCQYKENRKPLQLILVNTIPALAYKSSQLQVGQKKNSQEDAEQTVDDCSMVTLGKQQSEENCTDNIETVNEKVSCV
Sequence of 5-hydroxytryptamine receptor 7 (P34969 whole entry): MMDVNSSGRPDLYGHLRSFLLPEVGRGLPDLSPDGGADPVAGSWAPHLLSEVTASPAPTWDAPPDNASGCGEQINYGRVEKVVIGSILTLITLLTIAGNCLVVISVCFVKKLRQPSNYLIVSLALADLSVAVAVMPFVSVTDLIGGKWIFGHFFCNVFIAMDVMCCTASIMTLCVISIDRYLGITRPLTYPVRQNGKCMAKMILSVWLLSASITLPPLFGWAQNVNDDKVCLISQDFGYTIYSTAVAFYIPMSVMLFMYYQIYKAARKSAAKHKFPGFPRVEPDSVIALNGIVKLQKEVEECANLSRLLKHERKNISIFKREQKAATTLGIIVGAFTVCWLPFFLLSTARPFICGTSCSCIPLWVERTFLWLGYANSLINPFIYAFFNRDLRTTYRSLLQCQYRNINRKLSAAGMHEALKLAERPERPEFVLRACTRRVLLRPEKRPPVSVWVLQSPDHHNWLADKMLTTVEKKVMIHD

`Cn1c(=O)c2c(ncn2CCCCN2CCN(c3ccccc3)CC2)n(C)c1=O` gave a Ki [1] of 1150 nM, a Ki [2] of 507 nM and a Ki [3] of 23 nM. For the same molecule, the Ki [4] was 14200 nM and the Ki (D(2) dopamine receptor) was 1010 nM.

`Cn1c(=O)c2c(ncn2CCCN2CCN(c3cccc(Cl)c3)CC2)n(C)c1=O` gave a Ki [1] of 2800 nM, a Ki [2] of 53 nM and a Ki [3] of 182 nM. It also gave a Ki [4] of 20300 nM and a Ki (D(2) dopamine receptor) of 3190 nM.

With `Cl.Cn1c(=O)c2c(ncn2CCCCCN2CCN(c3cccc(Cl)c3)CC2)n(C)c1=O` the Activity (Mus musculus [5]) was 57%, the deltaT (Mus musculus [6]) was -1.4 °C and the Activity (Mus musculus [7]) was “Non-toxic”. For the same molecule, the Ki [1] was 131 nM, the Activity (Mus musculus [8]) was “inactive” and the Activity (Mus musculus [9]) was “Active”. The deltaT (Mus musculus [10]) was -1.3 °C, the Activity (Rattus norvegicus [11]) was 0.5 and the Activity (Mus musculus [12]) was 1.3. For the same molecule, the deltaT (Mus musculus [13]) was -1.8 °C, the Activity (Mus musculus [14]) was 5.8 and the Activity (Mus musculus [15]) was 8.2. The Activity (Rattus norvegicus [16]) was 1.8, the Ki [2] was 54 nM and the Activity (Rattus norvegicus [17]) was 1.1. The deltaT (Mus musculus [18]) was -1.8 °C, the deltaT (Mus musculus [19]) was -2 °C and the deltaT (Mus musculus [20]) was -1.5 °C. The Activity (Rattus norvegicus [21]) was 0.3, the deltaT (Mus musculus [22]) was -2.1 °C and the Activity (Rattus norvegicus [23]) was 0.1. For the same molecule, the Activity (Mus musculus [24]) was “Non-toxic”, the Ki [3] was 5 nM and the Ki [4] was 1200 nM. For the same molecule, the Activity (Mus musculus [25]) was 71%, the deltaT (Mus musculus [26]) was 0.3 °C and the Activity (Mus musculus [27]) was 12.8. The deltaT (Mus musculus [28]) was -1.1 °C, the Activity (Mus musculus [29]) was 10.8 and the Ki (D(2) dopamine receptor) was 40 nM. For the same molecule, the deltaT (Mus musculus [30]) was -2.2 °C, the Activity (Rattus norvegicus [31]) was 0.2 and the inhibition (Mus musculus [32]) was “Dose-dependent effect”. For the same molecule, the ED50 (Mus musculus [32]; ip, read-out: ID50 (the source's name)) was 2.54 mg/kg.

For `Cl.Cn1c(=O)c2c(ncn2CCCCCN2CCN(c3ccccc3)CC2)n(C)c1=O`, the deltaT (Mus musculus [33]) was -1.5 °C, the deltaT (Mus musculus [34]) was -1.4 °C and the deltaT (Mus musculus [35]) was -0.2 °C. For the same molecule, the deltaT (Mus musculus [6]) was 1.1 °C, the Ki [1] was 346 nM and the Activity (Mus musculus [36]) was “inactive”. The Activity (Mus musculus [37]) was “inactive”, the Ki [2] was 308 nM and the Activity (Rattus norvegicus [17]) was 1.7. It also gave an Activity (Rattus norvegicus [38]) of 0.2, an Activity (Rattus norvegicus [21]) of 0.4 and an Activity (Rattus norvegicus [23]) of 2. For the same molecule, the Ki [3] was 11 nM, the deltaT (Mus musculus [39]) was -0.9 °C and the deltaT (Mus musculus [40]) was -0.9 °C. For the same molecule, the Activity (Mus musculus [41]) was “Non-toxic”, the Ki [4] was 10300 nM and the deltaT (Mus musculus [26]) was 0.4 °C. The deltaT (Mus musculus [28]) was -0.1 °C, the Activity (Mus musculus [42]) was 50% and the Ki (D(2) dopamine receptor) was 356 nM. For the same molecule, the deltaT (Mus musculus [43]) was -1.3 °C and the deltaT (Mus musculus [30]) was -1.4 °C.

From ChEMBL document CHEMBL3352178, “Antidepressant- and anxiolytic-like activity of 7-phenylpiperazinylalkyl-1,3-dimethyl-purine-2,6-dione derivatives with diversified 5-HT₁A receptor functional profile” (Bioorg Med Chem, 2015)
